Consider three molecules from PMC5750217 (Nature Communications, 2018).

In one experiment the target is T1, A1-T458S (mutant ASCT1) (Homo sapiens, UniProt P43007, T458S).
T1 construct: expressed in transfected cells; host or cells: Xenopus laevis oocytes (cRNA injection)
T1 sequence (P43007 1-532 T458S): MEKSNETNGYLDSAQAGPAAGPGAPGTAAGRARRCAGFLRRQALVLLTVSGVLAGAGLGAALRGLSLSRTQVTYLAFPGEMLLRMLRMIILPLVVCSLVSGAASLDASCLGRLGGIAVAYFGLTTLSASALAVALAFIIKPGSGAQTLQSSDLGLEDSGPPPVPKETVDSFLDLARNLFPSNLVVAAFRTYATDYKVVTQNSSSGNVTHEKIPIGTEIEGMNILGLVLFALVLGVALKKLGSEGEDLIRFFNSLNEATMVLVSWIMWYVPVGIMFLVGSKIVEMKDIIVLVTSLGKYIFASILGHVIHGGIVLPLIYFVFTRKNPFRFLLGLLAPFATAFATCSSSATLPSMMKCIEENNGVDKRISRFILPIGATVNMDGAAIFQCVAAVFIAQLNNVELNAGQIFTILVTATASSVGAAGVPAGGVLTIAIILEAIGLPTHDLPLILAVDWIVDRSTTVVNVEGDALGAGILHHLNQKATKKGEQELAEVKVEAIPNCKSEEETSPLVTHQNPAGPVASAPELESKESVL
Briefly: Two electrode voltage clamp, substrate-activated anion current in oocytes expressing A1-T458S. Particulars: NO3−-containing buffer, current at +60 mV, dash = substrate did not generate currents. The format is cell-based. On the procedure: (§1) All chemicals were obtained from Sigma unless otherwise stated. Stage V oocytes were harvested from female Xenopus laevis (frogs) which were obtained from Nasco (Fort Alkinson, USA). Frogs were anaesthetised with 6.5 mM tricaine neutralised with 7.14 mM sodium bicarbonate. After making an incision in the abdomen of the frog, ovarian sacs were removed and stored in OR-2 buffer (82.5 mM NaCl, 2 mM KCl, 1 mM MgCl2, 5 mM hemisodium HEPES, pH 7.5). This surgical procedure follows a protocol (#2016/970) approved by the University of Sydney Animal Ethics Committee under the Australian Code of Practice for the Care and Use of Animals for Scientific Purposes. […]
(§2) After 2–4 days of microinjection, current recordings were made using the two electrode voltage clamp technique with a Geneclamp 500 amplifier (Axon Instruments, Foster City, CA) interfaced with a MacLab 2e chart recorder (ADI Instruments, Sydney, Australia) using the chart software, and a Digidata 1322A (Axon Instruments) controlled by an IBM-compatible computer using the pClamp software (version 10, Molecular Devices, Union City, CA). […] Current–voltage relationships were calculated by subtracting steady state current measurements in the absence of substrate from corresponding current measurements in the presence of substrate. […]
(In two-electrode clamp one electrode senses voltage and the other passes current.)

The target in a further experiment is T2, ASCT1 (Homo sapiens, UniProt P43007).
T2 construct: expressed in transfected cells; host or cells: Xenopus laevis oocytes (cRNA injection)
T2 sequence (P43007 1-532): T1 sequence (P43007 1-532 T458S) with S458T
The experiment in a line: Two electrode voltage clamp, substrate-activated anion current in oocytes expressing ASCT1. The format is cell-based. How it is done:
as §1, §2

Each structure is given as a SMILES string. Positions count from the first letter of the chain named.

For orientation: EC50 means the concentration that produces a half-maximal response. A lower EC50 goes with greater potency. For the molecule `N[C@@H](CO)C(=O)O` [L-serine], the 50% effective concentration (EC50) on A1-T458S (mutant ASCT1) was found to be 106 ± 4 µM; at ASCT1 (ASCT1 in oocytes, NO3−-containing buffer, current at +60 mV, dash = substrate did not generate currents), 100 ± 20 µM.

Regarding `N[C@@H](CCC(=O)Nc1ccc([N+](=O)[O-])cc1)C(=O)O` [GPNA, glutamyl-p-nitroanilide], the “GPNA % inhibition of L-serine activated current” value at ASCT1 (ASCT1, GPNA co-applied with EC50 of L-serine, 300 µM GPNA / 1 mM GPNA (Table 1 footnote)) was 26 ± 3%.

Regarding `NC(=O)CC[C@H](N)C(=O)O` [L-glutamine], the “EC50 of substrate-activated current” value on A1-T458S (mutant ASCT1) is reported as “does not respond”.
